According to ChEMBL document CHEMBL1141989, “Amino acid conjugates as kappa opioid receptor agonists” (Bioorg Med Chem Lett, 2005):
Values joined by “and” are separate entries in the source; they are usually repeats but may differ in a detail not shown here. Identical values can stand only once.

Key:
[1] = target: T1, Kappa-type opioid receptor (Homo sapiens, UniProt P41145); test: In vitro binding affinity for human kappa opioid receptor was determined by using [3H]diprenorphine as radioligand
[2] = target: Opioid receptors; mu & kappa (Homo sapiens) (UniProt P41145+P35372); test: Selectivity of binding affinity of human kappa opioid receptor over human mu opioid receptor; type: protein assay
[3] = target: T1, Kappa-type opioid receptor; test: In vitro effective concentration towards human kappa opioid receptor was determined using [35S]-GTP-gamma S as radioligand; Not determined; type: functional

Chain of Opioid receptors; mu & kappa (Homo sapiens) (P35372 whole entry, looked up): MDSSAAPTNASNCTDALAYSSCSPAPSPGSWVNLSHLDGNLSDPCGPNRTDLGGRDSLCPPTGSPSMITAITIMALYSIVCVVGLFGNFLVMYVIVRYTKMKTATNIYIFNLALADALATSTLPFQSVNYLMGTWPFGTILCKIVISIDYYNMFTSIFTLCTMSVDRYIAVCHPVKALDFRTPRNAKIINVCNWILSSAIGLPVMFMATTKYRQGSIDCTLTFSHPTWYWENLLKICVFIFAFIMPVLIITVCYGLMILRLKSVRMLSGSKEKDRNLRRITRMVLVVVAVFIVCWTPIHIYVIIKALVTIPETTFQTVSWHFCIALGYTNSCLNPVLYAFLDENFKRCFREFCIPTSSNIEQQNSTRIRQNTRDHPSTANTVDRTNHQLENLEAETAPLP
Chain of Opioid receptors; mu & kappa (Homo sapiens) (P41145 whole entry, looked up): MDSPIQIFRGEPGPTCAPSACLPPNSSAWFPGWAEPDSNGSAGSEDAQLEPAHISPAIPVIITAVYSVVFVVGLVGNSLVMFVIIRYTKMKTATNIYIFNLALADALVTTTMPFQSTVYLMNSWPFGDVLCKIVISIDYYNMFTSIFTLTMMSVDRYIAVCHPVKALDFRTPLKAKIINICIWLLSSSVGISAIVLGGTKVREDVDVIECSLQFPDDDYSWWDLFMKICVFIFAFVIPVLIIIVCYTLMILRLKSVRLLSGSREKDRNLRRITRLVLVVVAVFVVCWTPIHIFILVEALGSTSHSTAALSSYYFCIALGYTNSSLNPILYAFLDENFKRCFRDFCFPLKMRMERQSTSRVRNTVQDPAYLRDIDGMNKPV
T1 sequence (P41145 whole entry): as the sequence (P41145 whole entry, looked up) above

Row | SMILES | Ki [1] [nM] | Selectivity [2] | EC50 [3] [nM]
1 | COc1ccc(C(=O)NCC(=O)N(C)[C@H](CN2CC[C@@H](O)C2)c2ccccc2)cc1 | 48 | 39 and > 100 | –
2 | CN(C(=O)CNC(=O)c1ccc(Cl)c(Cl)c1)[C@H](CN1CCCC1)c1ccccc1 | 3.6 | 34 and 24 | 2.25
3 | CN(C(=O)[C@H](NC(=O)OCc1ccccc1)c1ccccc1)[C@H](CN1CCCC1)c1ccccc1 | 856 | – | –
4 | COC(=O)N[C@H](C(=O)N(C)[C@H](CN1CCCC1)c1ccccc1)c1ccccc1 | 178 | > 100 | –
5 | CN(C(=O)CNC(=O)OCc1ccccc1)[C@H](CN1CCCC1)c1ccccc1 | 84 | – | –
6 | CN(CC(=O)N(C)[C@H](CN1CC[C@@H](O)C1)c1ccccc1)C(=O)c1ccc(Cl)c(Cl)c1 | 20 | – | 41.4
7 | CN(C(=O)CNC(=O)c1ccc(Cl)c(Cl)c1)[C@H](CN1CC[C@@H](O)C1)c1ccccc1 | 0.83 | – | 0.76
8 | COc1ccccc1C(=O)NCC(=O)N(C)[C@H](CN1CC[C@@H](O)C1)c1ccccc1 | 2 | – | 1.98
9 | CN(C(=O)[C@@H](NC(=O)OCc1ccccc1)c1ccccc1)[C@H](CN1CCCC1)c1ccccc1 | 138 | 22 and 27 | –
10 | CN(C(=O)CNC(=O)c1ccccc1)[C@H](CN1CCCC1)c1ccccc1 | 6.7 | 61 and 50 | 3.85
11 | CN(C(=O)CNC(=O)c1ccc2c(c1)no[n+]2[O-])[C@H](CN1CCCC1)c1ccccc1 | 4.6 | – | 4.37
12 | CN(C(=O)[C@H](Cc1ccccc1)NC(=O)OCc1ccccc1)[C@H](CN1CCCC1)c1ccccc1 | 150 | 13 and 5 | –
13 | CN(C(=O)C(NC=O)c1ccccc1)[C@H](CN1CCCC1)c1ccccc1 (mixture of isomers) | 258 | 146 and > 100 | –
14 | CN(C(=O)CNC(=O)Cc1ccccc1)[C@H](CN1CCCC1)c1ccccc1 | 16.3 | > 100 and 49 | –
15 | CN(C(=O)[C@@H](NC(=O)c1ccccc1)c1ccccc1)[C@H](CN1CCCC1)c1ccccc1 | 99 | – | –
